Values of other authors, collected in patent US20240148879A1, “GLP-1R, GIP-R AND/OR GCGR AGONISTS, FORMULATIONS, AND METHODS OF USE” (Spitfire Pharma LLC, priority 2021, published 2024).
Bridge positions count the residues as written; N and C are the ends. Ends that are not written are not given here.

Legend:
[1] = 12 weeks

## CCCCCCCCCCCCCCCC(=O)N[C@@H](CCC(=O)NCCCC[C@H](NC(=O)[C@H](CC(=O)O)NC(=O)[C@H](CO)NC(=O)[C@@H](NC(=O)[C@H](Cc1ccccc1)NC(=O)[C@@H](NC(=O)CNC(=O)[C@H](CCC(N)=O)NC(=O)[C@H](CO)NC(=O)[C@@H](N)Cc1c[nH]cn1)[C@@H](C)O)[C@@H](C)O)C(=O)N[C@@H](CO)C(=O)N[C@@H](CCC(=O)O)C(=O)N[C@@H](Cc1ccc(O)cc1)C(=O)N[C@@H](CC(C)C)C(=O)N[C@@H](CC(=O)O)C(=O)N[C@@H](CO)C(=O)N[C@@H](CCC(=O)O)C(=O)N[C@@H](CCCNC(=N)N)C(=O)N[C@@H](C)C(=O)N[C@@H](CCCNC(=N)N)C(=O)N[C@@H](CC(=O)O)C(=O)N[C@@H](Cc1ccccc1)C(=O)N[C@H](C(=O)N[C@@H](C)C(=O)N[C@@H](Cc1c[nH]c2ccccc12)C(=O)N[C@@H](CC(C)C)C(=O)N[C@@H](CCC(=O)O)C(=O)N[C@@H](C)C(=O)NCC(=O)NCC(=O)O)C(C)C)C(=O)O [cotadutide]
6 weeks
  reduction in liver fat content: 39%
Compared with liraglutide alone
  NASH-related alanine aminotransferase (ALT) reduction: greater improvement
Over 26 weeks of administration
  degree of weight loss: 5.4%

## JNJ 64565111: a balanced dual agonist (HAQGTFTSDYSKYLDEKRAKEFVQWLMNTX; lactam 16-20; X not resolved here; also: Fc carrier conjugate)
[1]
  reduction in body weight: 8%
